Paper PMC9609824 (Molecules, 2022)
Where two headings read alike, the source gives them in different places. Blank lines part the entries; values can stand above or below the molecule they belong to.

Key:
CYP2C9 and CYP2C19 = settings: metabolized by CYP2C9 and CYP2C19; cited from earlier work
[1] = freeze–thaw stability (−80 °C, thawed at room temperature three times), High QC 1250
[2] = freeze–thaw stability (−80 °C, thawed at room temperature three times), Low QC 75
[3] = short-term stability T0 (room temperature, immediately after preparation), High QC 1250
[4] = short-term stability T0 (room temperature, immediately after preparation), Low QC 75
[5] = short-term stability T4 (freezer −80 °C, 4 h), High QC 1250
[6] = short-term stability T4 (freezer −80 °C, 4 h), Low QC 75
[7] = short-term stability T24 (freezer −80 °C, 24 h), High QC 1250
[8] = short-term stability T24 (freezer −80 °C, 24 h), Low QC 75

SMILES: Cc1cnc(C(=O)NCCc2ccc(S(=O)(=O)NC(=O)N[C@H]3CCC[C@@H](O)C3)cc2)cn1 (relative stereo) [3-cis-hydroxyglipizide]
Share of glipizide metabolized to the inactive metabolite (CYP2C9 and CYP2C19): 15%

SMILES: Cc1cnc(C(=O)NCCc2ccc(S(=O)(=O)NC(=O)N[C@H]3CC[C@H](O)CC3)cc2)cn1 [4-trans-hydroxyglipizide]
Share of glipizide metabolized to the inactive metabolite (CYP2C9 and CYP2C19): 71%

Accuracy (% Error) (autosampler 24 h, High QC 1250): −1.32% | Mean ± SD Measurable Conc. (autosampler 24 h, High QC 1250): 1233.47 ± 71.06 ng/mL | Accuracy (% Error) (autosampler 24 h, Low QC 75): 1.83% | Mean ± SD Measurable Conc. (autosampler 24 h, Low QC 75): 76.37 ± 2.27 ng/mL | Accuracy (% Error) [1]: −1.59% | Mean ± SD Measurable Conc. [1]: 1230.17 ± 112.55 ng/mL | Accuracy (% Error) [2]: 4.86% | Mean ± SD Measurable Conc. [2]: 78.65 ± 4.84 ng/mL | Accuracy (% Error) [3]: −0.82% | Mean ± SD Measurable Conc. [3]: 1239.79 ± 68.22 ng/mL | Accuracy (% Error) [4]: 8.13% | Mean ± SD Measurable Conc. [4]: 81.10 ± 2.06 ng/mL | Accuracy (% Error) [5]: 2.82% | Mean ± SD Measurable Conc. [5]: 1285.25 ± 10.84 ng/mL | Accuracy (% Error) [6]: −6.68% | Mean ± SD Measurable Conc. [6]: 69.99 ± 1.61 ng/mL | Accuracy (% Error) [7]: 4.93% | Mean ± SD Measurable Conc. [7]: 1311.63 ± 30.52 ng/mL | Accuracy (% Error) [8]: −6.27% | Mean ± SD Measurable Conc. [8]: 70.30 ± 2.90 ng/mL
SMILES: Cc1cnc(C(=O)NCCc2ccc(S(=O)(=O)NC(=O)NC3CCCCC3)cc2)cn1 [GLZ, glipizide]
